Laboratory results: patent US12077503B2, “Substituted cyclic amides and their use as herbicides” (FMC CORPORATION, priority 2015, dated 2024)

Key:
Type in all cases: in vivo
rice (Oryra sativa) = assay: Test B flooded paddy test; conditions: Flood, 250 g ai/ha; 0 to 100 scale where 0 is no effect and 100 is complete control; 13 to 15 d
How it was run: (§1)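 Rating scale 0–100 (visual, vs untreated controls) after a 13–15 d greenhouse period; application to the flood layer, 3 cm above soil and maintained; plants at 2-leaf stage when treated.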

[1] = tested on: barnyardgrass (Echinochloa crus-galli); assay: Test B flooded paddy test; conditions: Flood, 250 g ai/ha; 0 to 100 scale where 0 is no effect and 100 is complete control; 13 to 15 d
How it was run: as §1

[2] = tested on: ducksalad (Heteranthera limosa); assay: Test B flooded paddy test; conditions: Flood, 250 g ai/ha; 0 to 100 scale where 0 is no effect and 100 is complete control; 13 to 15 d
How it was run: as §1

[3] = tested on: sedge, umbrella (small-flower umbrella sedge, Cyperus difformis); assay: Test B flooded paddy test; conditions: Flood, 250 g ai/ha; 0 to 100 scale where 0 is no effect and 100 is complete control; 13 to 15 d
How it was run: as §1

corn (Zea mays) = assay: Test A postemergence
How it was run: (§2)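 Visual injury, scored on a 0–100 scale relative to untreated controls, was recorded about 10 d after application. Treatments were a preemergence soil spray over planted seeds or a postemergence spray on plants at the one- to two-leaf stage, 2 to 10 cm tall, all in loam soil–sand blend in the greenhouse.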

[4] = tested on: Galium (catchweed bedstraw, Galium aparine); assay: Test A postemergence
How it was run: as §2

Kochia (Kochia scoparia) [5] = assay: Test A postemergence
How it was run: as §2

[6] = tested on: barnyardgrass (Echinochloa crus-galli); assay: Test A postemergence
How it was run: as §2

[7] = tested on: ryegrass, Italian (Italian ryegrass, Lolium multiflorum); assay: Test A postemergence
How it was run: as §2

[8] = tested on: ragweed (common ragweed, Ambrosia elatior); assay: Test A postemergence
How it was run: as §2

[9] = tested on: blackgrass (Alopecurus myosuroides); assay: Test A postemergence
How it was run: as §2

[10] = tested on: giant foxtail (Setaria faberii); assay: Test A postemergence
How it was run: as §2

[11] = tested on: wheat (Triticum aestivum); assay: Test A postemergence
How it was run: as §2

[12] = tested on: pigweed (Amaranthus retroflexus); assay: Test A postemergence
How it was run: as §2

Kochia (Kochia scoparia) [13] = assay: Test A preemergence
How it was run: as §2

[14] = tested on: barnyardgrass (Echinochloa crus-galli); assay: Test A preemergence
How it was run: as §2

[15] = tested on: ryegrass, Italian (Italian ryegrass, Lolium multiflorum); assay: Test A preemergence
How it was run: as §2

[16] = tested on: ragweed (common ragweed, Ambrosia elatior); assay: Test A preemergence
How it was run: as §2

[17] = tested on: giant foxtail (Setaria faberii); assay: Test A preemergence
How it was run: as §2

[18] = tested on: pigweed (Amaranthus retroflexus); assay: Test A preemergence
[19] = 125 g ai/ha, postemergence, visual injury rating on 0 to 100 scale (0 no effect, 100 complete control), approx. 10 d
[20] = Postemergence, 500 g ai/ha, 0 to 100 scale where 0 is no effect and 100 is complete control
[21] = 125 g ai/ha, Preemergence, visual injury after approximately 10 d, 0 to 100 scale where 0 is no effect and 100 is complete control
[22] = Preemergence, 500 g ai/ha, visual injury approx. 10 d
[23] = 125 g ai/ha, postemergence, visual rating after approx. 10 d, 0 to 100 scale (0 no effect, 100 complete control)
[24] = 500 g ai/ha, postemergence, visual injury, 0 to 100 scale (0 no effect, 100 complete control), approx. 10 d
[25] = 500 g ai/ha, preemergence, 0 to 100 scale, 0 = no effect, 100 = complete control

Structure (SMILES): COc1ccc(N2CC(c3cccc(C(F)(F)F)c3)C(C(=O)Nc3ccccc3F)C2=O)cc1 (stereo not drawn) [Compound 505]
- Plant response rating, Rice (rice (Oryra sativa)): 0
- Plant response rating, Barnyardgrass [1]: 0
- Plant response rating, Ducksalad [2]: 0
- Plant response rating, Sedge, Umbrella [3]: 0
- Corn plant response rating (corn (Zea mays); [19]): 0
- Plant response rating, Corn (corn (Zea mays); [20]): 0
- Galium plant response rating [4, 19]: 0
- Plant response rating, Galium [4, 20]: 0
- Kochia plant response rating (Kochia (Kochia scoparia) [5]; [19]): 0
- Plant response rating, Kochia (Kochia (Kochia scoparia) [5]; [20]): 0
- Barnyardgrass plant response rating [6, 19]: 0
- Plant response rating, Barnyardgrass [6, 20]: 0
- Ryegrass, Italian plant response rating [7, 19]: 0
- Plant response rating, Ryegrass, Italian [7, 20]: 0
- Ragweed plant response rating [8, 19]: 0
- Plant response rating, Ragweed [8, 20]: 0
- Blackgrass plant response rating [9, 19]: 0
- Plant response rating, Blackgrass [9, 20]: 0
- Foxtail, Giant plant response rating [10, 19]: 0
- Plant response rating, Foxtail, Giant [10, 20]: 0
- Wheat plant response rating [11, 19]: 0
- Plant response rating, Wheat [11, 20]: 0
- Pigweed plant response rating [12, 19]: 0
- Plant response rating, Pigweed [12, 20]: 10
- Plant response rating, Kochia (Kochia (Kochia scoparia) [13]; [21]): 0
- Kochia plant response rating (0 to 100 scale, 0 is no effect, 100 is complete control) (Kochia (Kochia scoparia) [13]; [22]): 0
- Plant response rating, Barnyardgrass [14, 21]: 0
- Barnyardgrass plant response rating (0 to 100 scale, 0 is no effect, 100 is complete control) [14, 22]: 0
- Plant response rating, Ryegrass, Italian [15, 21]: 0
- Ryegrass, Italian plant response rating (0 to 100 scale, 0 is no effect, 100 is complete control) [15, 22]: 0
- Plant response rating, Ragweed [16, 21]: 0
- Ragweed plant response rating (0 to 100 scale, 0 is no effect, 100 is complete control) [16, 22]: 0
- Plant response rating, Foxtail, Giant [17, 21]: 0
- Foxtail, Giant plant response rating (0 to 100 scale, 0 is no effect, 100 is complete control) [17, 22]: 0
- Plant response rating, Pigweed [18, 21]: 0
- Pigweed plant response rating (0 to 100 scale, 0 is no effect, 100 is complete control) [18, 22]: 0

Structure (SMILES): Cc1ccc(C2CNC(=O)C2C(=O)Nc2ccc(F)cc2F)cc1C(F)(F)F (racemic) [Compound 655]
- Plant response rating, Rice (rice (Oryra sativa)): 30
- Plant response rating, Barnyardgrass [1]: 20
- Plant response rating, Ducksalad [2]: 100
- Plant response rating, Sedge, Umbrella [3]: 0
- Plant response rating, Corn (corn (Zea mays); [23]): 0
- Plant response rating, Corn (corn (Zea mays); [24]): 30
- Plant response rating, Galium [4, 23]: 30
- Plant response rating, Galium [4, 24]: 50
- Plant response rating, Kochia (Kochia (Kochia scoparia) [5]; [23]): 30
- Plant response rating, Kochia (Kochia (Kochia scoparia) [5]; [24]): 40
- Plant response rating, Barnyardgrass [6, 23]: 70
- Plant response rating, Barnyardgrass [6, 24]: 90
- Plant response rating, Ryegrass, Italian [7, 23]: 0
- Plant response rating, Ryegrass, Italian [7, 24]: 30
- Plant response rating, Ragweed [8, 23]: 0
- Plant response rating, Ragweed [8, 24]: 0
- Plant response rating, Blackgrass [9, 23]: 20
- Plant response rating, Blackgrass [9, 24]: 30
- Plant response rating, Foxtail, Giant [10, 23]: 40
- Plant response rating, Foxtail, Giant [10, 24]: 60
- Plant response rating, Wheat [11, 23]: 0
- Plant response rating, Wheat [11, 24]: 10
- Plant response rating, Pigweed [12, 23]: 0
- Plant response rating, Pigweed [12, 24]: 0
- Plant response rating, Kochia (Kochia (Kochia scoparia) [13]; [21]): 30
- Plant response rating, Kochia (Kochia (Kochia scoparia) [13]; [25]): 40
- Plant response rating, Barnyardgrass [14, 21]: 90
- Plant response rating, Barnyardgrass [14, 25]: 90
- Plant response rating, Ryegrass, Italian [15, 21]: 40
- Plant response rating, Ryegrass, Italian [15, 25]: 60
- Plant response rating, Ragweed [16, 21]: 0
- Plant response rating, Ragweed [16, 25]: 30
- Plant response rating, Foxtail, Giant [17, 21]: 90
- Plant response rating, Foxtail, Giant [17, 25]: 90
- Plant response rating, Pigweed [18, 21]: 50
- Plant response rating, Pigweed [18, 25]: 60
